Data published in article PMC9585581, “Developing Photoaffinity Probes for Dopamine Receptor D2 to Determine Targets of Parkinson’s Disease Drugs” (ACS Chemical Neuroscience, 2022).
Entries after “also recorded” stand apart in the source; their conditions may differ.

How the values were obtained:
rat whole brain proteins = assay: Rat whole brain photo-cross-linking, biotin-streptavidin pulldown and LC/MS proteomics (interactome); assay type: binding, Sprague Dawley rat; conditions: probe 50 μM; rat whole brain minus olfactory bulb
Description: Whole brain assays were designed to assay the binding partners of 5 and 7, as well as a control for the inherent binding of the benzophenone cross-linker using molecule 16 (Figure 7). […] We chose this methodology to maximize the amount of unique hits we were likely to record. A drawback to this assay, however, is that GPCRs need highly specific extraction/purification conditions to be detected by LC-MS (or other protein detection methodologies) at the end point. Thus, by biasing our assay toward a “wide lens” to record a picture of diverse interactions, we missed the specific focus necessary to observe DRD2 and structurally related GPCRs, and we were unable to directly observe DRD2 in the proteomic analysis.
To perform the assay, the whole brain minus the olfactory bulb from an adult female Sprague Dawley rat was homogenized and treated with probes or linker control 16 at a 50 μM concentration and photo-cross-linked. A streptavidin resin was used to deplete endogenous biotin and then clicked with azido biotin, followed by streptavidin pulldown. The streptavidin beads were processed by tryptic digest, followed by LC/MS proteomic analysis. […]
To prepare the homogenate, adult rat brain tissue was microdissected and the olfactory bulb was discarded and sliced into 1 mm pieces. […] The total protein concentration was determined via BCA assay (Pierce) and adjusted to 6 mg/mL. […]

DRD2 = DRD2 (Homo sapiens, UniProt P14416); assay: PRESTO-TANGO β-arrestin recruitment assay (HTLA cells transfected with DRD2-TANGO, luciferase readout); assay type: cell-based; design: TEV protease site and fused transcription factor (TANGO module); expressed in transfected cells; host or cells: HTLA cells (gift of G. Barnea), transiently transfected; conditions: for activity in β-arrestin recruitment (in words): PRESTO-TANGO; for EC50: PRESTO-TANGO β-arrestin recruitment, luciferase activity, Hill slope of 1.0; for difference in potency of probe vs parent compound: β-arrestin recruitment, probes vs their parent compounds
Sequence of DRD2 (P14416 whole entry, the tested form may be a part): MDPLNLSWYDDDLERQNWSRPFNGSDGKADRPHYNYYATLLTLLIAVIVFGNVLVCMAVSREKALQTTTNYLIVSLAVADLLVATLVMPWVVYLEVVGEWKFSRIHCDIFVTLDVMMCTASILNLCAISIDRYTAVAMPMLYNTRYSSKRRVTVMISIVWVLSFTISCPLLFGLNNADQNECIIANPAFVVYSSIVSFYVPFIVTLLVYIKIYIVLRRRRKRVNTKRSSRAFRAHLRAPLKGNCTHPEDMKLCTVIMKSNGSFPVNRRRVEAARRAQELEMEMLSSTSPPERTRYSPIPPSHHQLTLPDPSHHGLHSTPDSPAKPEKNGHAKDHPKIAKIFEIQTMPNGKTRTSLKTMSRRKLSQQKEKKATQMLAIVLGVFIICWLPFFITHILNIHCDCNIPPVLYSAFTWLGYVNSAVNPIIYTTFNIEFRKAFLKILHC
Description: To characterize the response of the β-arrestin effector pathway to our ligands, we used the Parallel-Receptor-ome Expression and Screening via Transcriptional Output TANGO (PRESTO-TANGO) assay developed in the Roth lab.[44],[45] This assay uses luciferase activity to monitor β-arrestin recruitment by DRD2 (Figure 3a).
Figure 3 β-Arrestin recruitment analysis. (a) PRESTO-TANGO assay schematic: a ligand binds a chimeric DRD2 receptor, which then recruits β-arrestin fused with a TEV protease. The protease cuts a site between the receptor and a fused transcription factor, which then transits to the […] to initiate transcription of a luciferase gene. The luciferase activity is subsequently quantified.
HTLA cells were a gift from the laboratory of G. Barnea and were maintained in DMEM supplemented with 10% FBS, 100 U/mL penicillin, 100 μg/mL streptomycin, 2 μg/mL puromycin, 100 μg/mL hygromycin B, and 100 μg/mL G418 in a humidified atmosphere at 37 °C in 5% CO2. On day 1, cells were plated at a density of 1 × 10^5 cells/cm^2 in a black wall, clear-bottom 96-well plate (Nunc). The following day (day 2), cells were transfected with a 10× solution of 3:1 mixture of DRD2-TANGO/Optifect Transfection Reagent (Thermo) in unsupplemented DMEM. On day 3, 1× drug stimulation solutions were prepared in filter-sterilized unsupplemented DMEM. The transfection media was shaken or aspirated from the wells, and drug stimulation solutions were gently added. On day 4, drug solutions were removed from one well every 10 s (to maintain consistency of incubation time) and 50 μL per well of Bright-Glo solution (Promega) diluted 20-fold in HBSS was added. After incubation for 2 min at room temperature, luminescence was counted with an integration time of 10 s in a Spectramax i3x plate reader (Molecular Devices).

Structure (SMILES)	protein hits of the pulldown (in words) (rat whole brain proteins)	activity in β-arrestin recruitment (in words) (DRD2)	EC50 (DRD2) [µM]	difference in potency of probe vs parent compound (DRD2) [×]
C#CCOc1ccc(C(=O)c2ccc(CNCCc3cccc4c3CC(=O)N4)cc2)cc1 [Compound 5, 4-(2-((4-(4-(Prop-2-yn-1-yloxy)benzoyl)benzyl)amino)ethyl)indolin-2-one]	muscarinic acetylcholine receptor M1 and CB1 cannabinoid receptor-interacting protein 1; also recorded: bound other protein networks including the retrograde endocannabinoid signaling pathway, neuronal nitric oxide synthase, GABA receptor components, and muscarinic acetylcholine receptor M1	low micromolar activity	1.32	~1000
C#CCOc1ccc(C(=O)c2ccc(CN[C@H]3CCc4nc(N)sc4C3)cc2)cc1 [Compound 7, (S)-(4-(((2-Amino-4,5,6,7-tetrahydrobenzo[d]thiazol-6-yl)amino)methyl)phenyl)(4-(prop-2-yn-1-yloxy)phenyl)methanone]	bound other protein networks including the retrograde endocannabinoid signaling pathway, neuronal nitric oxide synthase, GABA receptor components, and muscarinic acetylcholine receptor M1	low micromolar activity	0.99	~1000
